Reference: patent publication US11186817B2, “Chemically defined cell culture media additive” (IUCF-HYU (INDUSTRY-UNIVERSITY COOPERATION FOUNDATION …, priority 2014, dated 2021)

Tested on: CHO DG44 cell line
Assay: Effective concentration range of THF: suspension growth of CHO DG44 in HY-CDM media
Format: cell-based, Chinese hamster
From the text: 1. Cell line and media: CHO DG44 cell line was used as a DHFR-deficient cell line. The cell line was passaged 80 times or more and suspension adapted in HY-CDM (in-house) media as chemically defined media. The suspension-adapted cell line was used to evaluate the influence of tetrahydrofolate (THF) and dihydrofolate (DHF) and the growth characteristics in commercial chemically defined media. The HY-CDM media were composed of chemically defined components only. Each HY-CDM medium further included a growth factor. HY-CDM media used in Examples 1, 3, and 4 were free of an animal derived lipid mixture, and HY-CDM media used in Example 2 were supplemented with cod liver oil.
2. Cell suspension culture: The cell line was inoculated at a density of 4×10^5 cells/ml and cultured in an Erlenmeyer flask with a 30 ml/125 ml working volume on an orbital shaker at 120 rpm under humidified conditions at 37° C. and 5% CO2. Before inoculation, the cells were centrifuged at 1,000 rpm (×162 g) for 5 min, the supernatant was discarded, and the remaining cells were dispersed into single cells in the heated medium. The cells were passaged three times to minimize the influence of the remaining medium under the experimental conditions. The subcultured cells were evaluated.
3. Density of live cells: The density of live cells was analyzed using a hemocytometer (Neubauer improved bright-line, Marienfeld, Germany), an inverted microscope (CK30, Olympus, Japan), and trypan blue dye exclusion.
In this example, the effective concentration range of THF inducing the suspension growth of the CHO DG44 cell line in the HY-CDM media was evaluated with varying amounts of THF.
To this end, the CHO DG44 cell line was passaged three time at a THF concentration of 0-480 mg/L, and their maximum cell densities and doubling times were measured.

Substance: tetrahydrofolate [THF]
- Doubling time, Passage 2 (THF 0.1000 mg/L, HY-CDM): 22.7 h
- Doubling time, Passage 3 (THF 0.1000 mg/L, HY-CDM): 18.2 h
- Maximum cell density, Average (THF 0.1000 mg/L, HY-CDM): 24.8 ×10^5 cells/ml
- Maximum cell density, Passage 1 (THF 0.1000 mg/L, HY-CDM): 27.6 ×10^5 cells/ml
- Maximum cell density, Passage 2 (THF 0.1000 mg/L, HY-CDM): 21.8 ×10^5 cells/ml
- Maximum cell density, Passage 3 (THF 0.1000 mg/L, HY-CDM): 24.9 ×10^5 cells/ml
- Doubling time, Average (THF 0.2000 mg/L, HY-CDM): 20.8 h
- Doubling time, Passage 1 (THF 0.2000 mg/L, HY-CDM): 22.7 h
- Doubling time, Passage 2 (THF 0.2000 mg/L, HY-CDM): 21.4 h
- Doubling time, Passage 3 (THF 0.2000 mg/L, HY-CDM): 18.3 h
- Maximum cell density, Average (THF 0.2000 mg/L, HY-CDM): 25.9 ×10^5 cells/ml
- Maximum cell density, Passage 1 (THF 0.2000 mg/L, HY-CDM): 26.6 ×10^5 cells/ml
- Maximum cell density, Passage 2 (THF 0.2000 mg/L, HY-CDM): 25.0 ×10^5 cells/ml
- Maximum cell density, Passage 3 (THF 0.2000 mg/L, HY-CDM): 26.1 ×10^5 cells/ml
- Cell density increase (THF 0.4 mg/L, HY-CDM): about 56%
- Doubling time, Average (THF 0.4000 mg/L, HY-CDM): 22.1 h
- Doubling time, Passage 1 (THF 0.4000 mg/L, HY-CDM): 22.7 h
- Doubling time, Passage 2 (THF 0.4000 mg/L, HY-CDM): 24.5 h
- Doubling time, Passage 3 (THF 0.4000 mg/L, HY-CDM): 19.2 h
- Maximum cell density, Average (THF 0.4000 mg/L, HY-CDM): 29.7 ×10^5 cells/ml
- Maximum cell density, Passage 1 (THF 0.4000 mg/L, HY-CDM): 30.2 ×10^5 cells/ml
- Maximum cell density, Passage 2 (THF 0.4000 mg/L, HY-CDM): 28.1 ×10^5 cells/ml
- Maximum cell density, Passage 3 (THF 0.4000 mg/L, HY-CDM): 30.9 ×10^5 cells/ml
- Cell density increase (THF 0.8 mg/L, HY-CDM): ~73%
- Doubling time, Average (THF 0.8000 mg/L, HY-CDM): 20.7 h
- Doubling time, Passage 1 (THF 0.8000 mg/L, HY-CDM): 22.1 h
- Doubling time, Passage 2 (THF 0.8000 mg/L, HY-CDM): 22.2 h
- Doubling time, Passage 3 (THF 0.8000 mg/L, HY-CDM): 17.6 h
- Maximum cell density, Average (THF 0.8000 mg/L, HY-CDM): 35.3 ×10^5 cells/ml
- Maximum cell density, Passage 1 (THF 0.8000 mg/L, HY-CDM): 34.2 ×10^5 cells/ml
- Maximum cell density, Passage 2 (THF 0.8000 mg/L, HY-CDM): 35.4 ×10^5 cells/ml
- Maximum cell density, Passage 3 (THF 0.8000 mg/L, HY-CDM): 36.4 ×10^5 cells/ml
- Doubling time, Average (THF 1.6000 mg/L, HY-CDM): 21.3 h
- Doubling time, Passage 1 (THF 1.6000 mg/L, HY-CDM): 21.4 h
- Doubling time, Passage 2 (THF 1.6000 mg/L, HY-CDM): 22.0 h
- Doubling time, Passage 3 (THF 1.6000 mg/L, HY-CDM): 20.5 h
- Maximum cell density, Average (THF 1.6000 mg/L, HY-CDM): 46.9 ×10^5 cells/ml
- Maximum cell density, Passage 1 (THF 1.6000 mg/L, HY-CDM): 46.0 ×10^5 cells/ml
- Maximum cell density, Passage 2 (THF 1.6000 mg/L, HY-CDM): 47.0 ×10^5 cells/ml
- Maximum cell density, Passage 3 (THF 1.6000 mg/L, HY-CDM): 47.8 ×10^5 cells/ml
- Doubling time, Average (THF 16.0000 mg/L, HY-CDM): 21.2 h
- Doubling time, Passage 1 (THF 16.0000 mg/L, HY-CDM): 22.5 h
- Doubling time, Passage 2 (THF 16.0000 mg/L, HY-CDM): 21.2 h
- Doubling time, Passage 3 (THF 16.0000 mg/L, HY-CDM): 19.8 h
- Maximum cell density, Average (THF 16.0000 mg/L, HY-CDM): 50.1 ×10^5 cells/ml
- Maximum cell density, Passage 1 (THF 16.0000 mg/L, HY-CDM): 52.0 ×10^5 cells/ml
- Maximum cell density, Passage 2 (THF 16.0000 mg/L, HY-CDM): 48.8 ×10^5 cells/ml
- Maximum cell density, Passage 3 (THF 16.0000 mg/L, HY-CDM): 49.6 ×10^5 cells/ml
- Doubling time (THF 0.025-16 mg/L, HY-CDM): 21.3 ± 0.7 h
- More rapid cell growth compared to control (THF 0.025-16 mg/L, HY-CDM): ≥ 14%
- Effect on cell growth (THF 0.1-160 mg/L, chemically defined media): effective in improving the cell growth
- Cell growth increase (THF 0.1-0.2 ma/L, HY-CDM): ≥ 35%
- Cell density increase (THF 160 mg/L, HY-CDM): ~90%
- Doubling time, Average (THF 160.0000 mg/L, HY-CDM): 23.0 h
- Doubling time, Passage 1 (THF 160.0000 mg/L, HY-CDM): 25.8 h
- Doubling time, Passage 2 (THF 160.0000 mg/L, HY-CDM): 21.6 h
- Doubling time, Passage 3 (THF 160.0000 mg/L, HY-CDM): 21.6 h
- Maximum cell density, Average (THF 160.0000 mg/L, HY-CDM): 35.7 ×10^5 cells/ml
- Maximum cell density, Passage 1 (THF 160.0000 mg/L, HY-CDM): 33.0 ×10^5 cells/ml
- Maximum cell density, Passage 2 (THF 160.0000 mg/L, HY-CDM): 36.4 ×10^5 cells/ml
- Maximum cell density, Passage 3 (THF 160.0000 mg/L, HY-CDM): 37.6 ×10^5 cells/ml
- Effect on cell growth (THF 480 mg/L, HY-CDM): inhibited the cell growth
- Maximum cell density, Average (THF 480.0000 mg/L, HY-CDM): 06.3 ×10^5 cells/ml
- Maximum cell density, Passage 1 (THF 480.0000 mg/L, HY-CDM): 09.4 ×10^5 cells/ml
- Maximum cell density, Passage 2 (THF 480.0000 mg/L, HY-CDM): 04.6 ×10^5 cells/ml
- Maximum cell density, Passage 3 (THF 480.0000 mg/L, HY-CDM): 04.8 ×10^5 cells/ml
- Cell density increase (maximum) (THF 1.6-16 mg/L, HY-CDM): ≥ 155%
